{"source": "patent US20250041228A1", "about": "“ORAL FORMULATION OF A PYRIDINONE DERIVATE AND USE THEREOF IN PROPHYLAXIS AND/OR TREATMENT OF INTESTINAL FIBROSIS” (Dr. Falk Pharma GmbH, priority 2021, published 2025)", "origin": "cited, not measured here", "target": "T1, transglutaminase 2 (Homo sapiens, UniProt P21980)", "T1 sequence (P21980 1-687)": "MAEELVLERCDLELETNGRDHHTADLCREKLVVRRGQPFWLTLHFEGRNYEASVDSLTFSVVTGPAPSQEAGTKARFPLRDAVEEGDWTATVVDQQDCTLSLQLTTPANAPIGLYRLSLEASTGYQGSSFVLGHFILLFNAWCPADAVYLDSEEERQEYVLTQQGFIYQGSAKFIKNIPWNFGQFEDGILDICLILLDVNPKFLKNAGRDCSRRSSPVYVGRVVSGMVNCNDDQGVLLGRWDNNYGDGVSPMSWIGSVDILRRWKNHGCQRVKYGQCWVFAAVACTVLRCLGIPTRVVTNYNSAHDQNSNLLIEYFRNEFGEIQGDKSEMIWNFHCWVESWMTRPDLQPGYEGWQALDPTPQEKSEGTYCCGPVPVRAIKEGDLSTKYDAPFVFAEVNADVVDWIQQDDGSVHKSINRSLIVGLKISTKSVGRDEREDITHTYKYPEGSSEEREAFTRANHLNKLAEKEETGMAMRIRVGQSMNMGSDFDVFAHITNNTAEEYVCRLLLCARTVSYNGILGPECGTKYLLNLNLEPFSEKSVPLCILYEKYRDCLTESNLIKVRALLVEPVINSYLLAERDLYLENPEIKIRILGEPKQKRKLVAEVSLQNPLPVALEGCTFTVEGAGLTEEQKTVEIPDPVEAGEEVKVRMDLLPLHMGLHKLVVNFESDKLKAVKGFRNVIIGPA", "conditions": "background statement, no data"}
{"smiles": "CCC(CC)CNC(=O)Cn1cccc(NC(=O)[C@H](CC/C=C/C(=O)OC)NC(=O)c2cncn2C)c1=O", "note": "[Compound 1, (S,E)-methyl-7-(1-(2-(2-ethylbutylamino)-2-oxoethyl)-2-oxo-1,2-dihydro-pyridin-3-ylamino)-6-(1-methyl-1H-imidazole-5-carboxamido)-7-oxohept-2-enoate]", "values": [{"measurement": "inhibitor against transglutaminase 2", "result": "effective inhibitor"}]}
